Common to all, as to format: biochemical
For one experiment, the target named is Jak2 (a.a. 828-1132) (Homo sapiens (Human), UniProt O60674). As to the kind of experiment: In vitro JAK kinase assay (HTRF, phosphorylation of a biotinylated peptide), JAK2. The conditions noted are these: measured at 1 mM ATP. In short, it runs like this: (§1)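 N-terminal His-tagged catalytic domains, baculovirus-expressed in insect cells, phosphorylated a biotinylated peptide for 1 hr at room temperature. EDTA stop was followed by SA-APC and Eu-Py20 antibody for 40 minutes, with phosphopeptide read by HTRF.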

Experiment [1] addresses human JAK1 (a.a. 837-1142) (Homo sapiens, UniProt P23458). As to the kind of experiment: In vitro JAK kinase assay (HTRF, phosphorylation of a biotinylated peptide), JAK1. The note with it: measured at 1 mM ATP. In short, it runs like this:
as §1
(In TR-FRET formats the signal depends on donor and acceptor labels being close together.)

The target in experiment [2] is human JAK1 (a.a. 837-1142). The description is as above. The conditions noted are these: ratio of JAK2 IC50 to JAK1 IC50, measured at 1 mM ATP. Summed up: as §1

Results on 21 molecules are retold here after US9999619B2, “Piperidin-4-yl azetidine derivatives as JAK1 inhibitors” (Incyte Corporation, priority 2010, dated 2018).

Each structure is given as a SMILES string.

Chain of Jak2 (a.a. 828-1132) (O60674 828-1132): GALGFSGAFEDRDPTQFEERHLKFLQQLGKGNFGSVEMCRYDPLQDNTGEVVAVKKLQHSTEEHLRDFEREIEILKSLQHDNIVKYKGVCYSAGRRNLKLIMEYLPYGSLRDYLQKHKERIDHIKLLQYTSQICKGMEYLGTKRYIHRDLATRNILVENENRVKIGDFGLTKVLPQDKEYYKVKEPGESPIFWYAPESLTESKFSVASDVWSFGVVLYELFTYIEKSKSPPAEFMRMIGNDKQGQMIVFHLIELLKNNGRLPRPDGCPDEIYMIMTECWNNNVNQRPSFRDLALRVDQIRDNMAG

The term IC50 denotes the concentration that inhibits the measured activity by half. A higher IC50 goes with weaker potency in that assay. As for `N#CCC1(n2cc(-c3ncnc4[nH]ccc34)cn2)CN(C2CC3CCC(C2)N3C(=O)c2ccc(F)c(F)c2)C1` (stereo not drawn) [Example 139, {1-[8-(3,4-difluorobenzoyl)-8-azabicyclo[3.2.1]oct-3-yl]-3-[4-(7H-pyrrolo[2,3-d]pyrimidin-4-yl)-1H-pyrazol-1-yl]azetidin-3-yl}acetonitrile], the IC50 was at most 10 nM against Jak2 (a.a. 828-1132) and at most 5 nM in experiment [1]. In experiment [2], the “IC50 Ratio JAK2/JAK1” value was found to be 4.4.
Consider `N#CCC1(n2cc(-c3ncnc4[nH]ccc34)cn2)CN(C2CC3CCC(C2)N3C(=O)c2ccc(C#N)c(F)c2)C1` (stereo not drawn) [Example 140, 4-[(3-{3-(cyanomethyl)-3-[4-(7H-pyrrolo[2,3-d]pyrimidin-4-yl)-1H-pyrazol-1-yl]azetidin-1-yl}-8-azabicyclo[3.2.1]oct-8-yl)carbonyl]-2-fluorobenzonitrile], for which the values for the IC50 (on Jak2 (a.a. 828-1132); in experiment [1]) were 10 to 50 nM and 5 to 20 nM, respectively. Besides, in experiment [2], the “IC50 Ratio JAK2/JAK1” value is on record as 5.4.
The like results for `N#CCC1(n2cc(-c3ncnc4[nH]ccc34)cn2)CN(C2CC3CCC(C2)N3C(=O)c2ccc(Cl)c(F)c2)C1` (stereo not drawn) [Example 141, {1-[8-(4-chloro-3-fluorobenzoyl)-8-azabicyclo[3.2.1]oct-3-yl]-3-[4-(7H-pyrrolo[2,3-d]pyrimidin-4-yl)-1H-pyrazol-1-yl]azetidin-3-yl}acetonitrile] were, in that order, at most 10 nM, at most 5 nM and 6.2.
For `N#CCC1(n2cc(-c3ncnc4[nH]ccc34)cn2)CN(C2CC3CCC(C2)N3C(=O)c2ccnc(C(F)(F)F)c2F)C1` (stereo not drawn) [Example 142, {1-{8-[3-fluoro-2-(trifluoromethyl)isonicotinoyl]-8-azabicyclo[3.2.1]oct-3-yl}-3-[4-(7H-pyrrolo[2,3-d]pyrimidin-4-yl)-1H-pyrazol-1-yl]azetidin-3-yl}acetonitrile], in that order: at most 10 nM, at most 5 nM and 7.4.
Regarding `N#CCC1(n2cc(-c3ncnc4[nH]ccc34)cn2)CN(C2CC3CCC(C2)N3C(=O)c2ccc(C(F)(F)F)nc2)C1` (stereo not drawn) [Example 143, [3-[4-(7H-pyrrolo[2,3-d]pyrimidin-4-yl)-1H-pyrazol-1-yl]-1-(8-{[6-(trifluoromethyl)pyridin-3-yl]carbonyl}-8-azabicyclo[3.2.1]oct-3-yl)azetidin-3-yl]acetonitrile], the IC50 fell in the range of 10 to 50 nM on Jak2 (a.a. 828-1132) and 5 to 20 nM in experiment [1]. In addition, the “IC50 Ratio JAK2/JAK1” value in experiment [2] is recorded as 3.5.
The like results for `CC1CC(N2CC(CC#N)(n3cc(-c4ncnc5[nH]ccc45)cn3)C2)CCN1C(=O)C1CCC(F)(F)CC1` (stereo not drawn) [Example 151, {1-{1-[(4,4-difluorocyclohexyl)carbonyl]-2-methylpiperidin-4-yl}-3-[4-(7H-pyrrolo[2,3-d]pyrimidin-4-yl)-1H-pyrazol-1-yl]azetidin-3-yl}acetonitrile] were, in that order, 50 to 100 nM, 5 to 20 nM and 5.8.
For `CC1(N2CC(CC#N)(n3cc(-c4ncnc5[nH]ccc45)cn3)C2)CCN(C(=O)c2cccc(F)c2)CC1` [Example 152, {1-[1-(3-Fluorobenzoyl)-4-methylpiperidin-4-yl]-3-[4-(7H-pyrrolo[2,3-d]pyrimidin-4-yl)-1H-pyrazol-1-yl]azetidin-3-yl}acetonitrile], the concentration for half-maximal inhibition (IC50) against Jak2 (a.a. 828-1132) fell in the range of 10 to 50 nM; in experiment [1] it was 5 to 20 nM. Also, in experiment [2], the “IC50 Ratio JAK2/JAK1” value amounted to 4.0.
Turning to `N#CCC1(n2cc(-c3ncnc4[nH]ccc34)cn2)CN(C2CCN(C(=O)Nc3c(F)cccc3F)CC2)C1` [Example 156, 4-{3-(cyanomethyl)-3-[4-(7H-pyrrolo[2,3-d]pyrimidin-4-yl)-1H-pyrazol-1-yl]azetidin-1-yl}-N-(2,6-difluorophenyl)piperidine-1-carboxamide], the results for the IC50 (against Jak2 (a.a. 828-1132); in experiment [1]) were 10 to 50 nM and at most 5 nM, respectively. Also, the “IC50 Ratio JAK2/JAK1” value in experiment [2] amounted to 11.2.
With `N#CCC1(n2cc(-c3ncnc4[nH]ccc34)cn2)CN(C2CCN(C(=O)Nc3ccccc3C(F)(F)F)CC2)C1` [Example 157, 4-{3-(cyanomethyl)-3-[4-(7H-pyrrolo[2,3-d]pyrimidin-4-yl)-1H-pyrazol-1-yl]azetidin-1-yl}-N-[2-(trifluoromethyl)phenyl]piperidine-1-carboxamide], the results for the IC50 (against Jak2 (a.a. 828-1132); in experiment [1]) were 50 to 100 nM and at most 5 nM, respectively. Further, the “IC50 Ratio JAK2/JAK1” value in experiment [2] turned out to be 14.8.
For the molecule `N#CCC1(n2cc(-c3ncnc4[nH]ccc34)cn2)CN(C2CCN(C(=O)Nc3ccccc3OC(F)(F)F)CC2)C1` [Example 158, 4-{3-(cyanomethyl)-3-[4-(7H-pyrrolo[2,3-d]pyrimidin-4-yl)-1H-pyrazol-1-yl]azetidin-1-yl}-N-[2-(trifluoromethoxy)phenyl]piperidine-1-carboxamide], the IC50 on Jak2 (a.a. 828-1132) was 10 to 50 nM; in experiment [1] it was at most 5 nM. In addition, in experiment [2], the “IC50 Ratio JAK2/JAK1” value came out at 12.0.
On to `N#CCC1(n2cc(-c3ncnc4[nH]ccc34)cn2)CN(C2CCN(C(=O)Nc3cscc3Br)CC2)C1` [Example 159, N-(4-bromo-3-thienyl)-4-{3-(cyanomethyl)-3-[4-(7H-pyrrolo[2,3-d]pyrimidin-4-yl)-1H-pyrazol-1-yl]azetidin-1-yl}piperidine-1-carboxamide], for which the IC50 at Jak2 (a.a. 828-1132) is 10 to 50 nM; in experiment [1], at most 5 nM. The “IC50 Ratio JAK2/JAK1” value in experiment [2] is on record as 15.0.
Take `N#CCC1(n2cc(-c3ncnc4[nH]ccc34)cn2)CN(C2CCN(C(=O)Nc3c(Cl)cccc3Cl)CC2)C1` [Example 160, 4-{3-(cyanomethyl)-3-[4-(7H-pyrrolo[2,3-d]pyrimidin-4-yl)-1H-pyrazol-1-yl]azetidin-1-yl}-N-(2,6-dichlorophenyl)piperidine-1-carboxamide]: the IC50 was 10 to 50 nM at Jak2 (a.a. 828-1132) and at most 5 nM in experiment [1]. The “IC50 Ratio JAK2/JAK1” value in experiment [2] was determined as 12.1.
Turning to `Cc1cccc(Cl)c1NC(=O)N1CCC(N2CC(CC#N)(n3cc(-c4ncnc5[nH]ccc45)cn3)C2)CC1` [Example 161, N-(2-chloro-6-methylphenyl)-4-{3-(cyanomethyl)-3-[4-(7H-pyrrolo[2,3-d]pyrimidin-4-yl)-1H-pyrazol-1-yl]azetidin-1-yl}piperidine-1-carboxamide], the half-maximal inhibitory concentration (IC50) is 10 to 50 nM against Jak2 (a.a. 828-1132) and at most 5 nM in experiment [1]. Moreover, in experiment [2], the “IC50 Ratio JAK2/JAK1” value amounted to 12.1.
For the molecule `N#CCC1(n2cc(-c3ncnc4[nH]ccc34)cn2)CN(C2CCN(C(=O)Nc3ccc(F)cc3Cl)CC2)C1` [Example 162, N-(2-chloro-4-fluorophenyl)-4-{3-(cyanomethyl)-3-[4-(7H-pyrrolo[2,3-d]pyrimidin-4-yl)-1H-pyrazol-1-yl]azetidin-1-yl}piperidine-1-carboxamide], the IC50 at Jak2 (a.a. 828-1132) is 10 to 50 nM; in experiment [1], at most 5 nM. Further, the “IC50 Ratio JAK2/JAK1” value in experiment [2] came out at 13.6.
The like results for `N#CCC1(n2cc(-c3ncnc4[nH]ccc34)cn2)CN(C2CCN(C(=O)Nc3ccccc3Cl)CC2)C1` [Example 163, N-(2-chlorophenyl)-4-{3-(cyanomethyl)-3-[4-(7H-pyrrolo[2,3-d]pyrimidin-4-yl)-1H-pyrazol-1-yl]azetidin-1-yl}piperidine-1-carboxamide] were, in that order, 10 to 50 nM, at most 5 nM and 12.0.
The like results for `N#CCC1(n2cc(-c3ncnc4[nH]ccc34)cn2)CN(C2CCN(C(=O)Nc3ccccc3OC(F)F)CC2)C1` [Example 164, 4-{3-(cyanomethyl)-3-[4-(7H-pyrrolo[2,3-d]pyrimidin-4-yl)-1H-pyrazol-1-yl]azetidin-1-yl}-N-[2-(difluoromethoxy)phenyl]piperidine-1-carboxamide] were, in that order, 10 to 50 nM, at most 5 nM and 13.3.
Regarding `N#CCC1(n2cc(-c3ncnc4[nH]ccc34)cn2)CN(C2CCN(C(=O)Nc3cnccc3C(F)(F)F)CC2)C1` [Example 165], the IC50 against Jak2 (a.a. 828-1132) lay within 50 to 100 nM; in experiment [1] it was 5 to 20 nM. For the same molecule, in experiment [2], the “IC50 Ratio JAK2/JAK1” value was found to be 10.4.
Regarding `N#CCC1(n2cc(-c3ncnc4[nH]ccc34)cn2)CN(C2CCN(C(=O)Nc3cccc(C(F)(F)F)c3)CC2)C1` [Example 166, 4-{3-(cyanomethyl)-3-[4-(7H-pyrrolo[2,3-d]pyrimidin-4-yl)-1H-pyrazol-1-yl]azetidin-1-yl}-N-[3-(trifluoromethyl)phenyl]piperidine-1-carboxamide], the values for the IC50 (against Jak2 (a.a. 828-1132); in experiment [1]) were at most 10 nM and at most 5 nM, respectively. Besides, the “IC50 Ratio JAK2/JAK1” value in experiment [2] turned out to be 5.5.
Turning to `N#CCC1(n2cc(-c3ncnc4[nH]ccc34)cn2)CN(C2CCN(C(=O)Nc3ccc(C(F)(F)F)cc3)CC2)C1` [Example 167, 4-{3-(cyanomethyl)-3-[4-(7H-pyrrolo[2,3-d]pyrimidin-4-yl)-1H-pyrazol-1-yl]azetidin-1-yl}-N-[4-(trifluoromethyl)phenyl]piperidine-1-carboxamide], the values for the IC50 (against Jak2 (a.a. 828-1132); in experiment [1]) were at most 10 nM and at most 5 nM, respectively. Further, the “IC50 Ratio JAK2/JAK1” value in experiment [2] is reported as 2.0.
For `Cc1ccc(Cl)cc1NC(=O)N1CCC(N2CC(CC#N)(n3cc(-c4ncnc5[nH]ccc45)cn3)C2)CC1` [Example 168, N-(5-chloro-2-methylphenyl)-4-{3-(cyanomethyl)-3-[4-(7H-pyrrolo[2,3-d]pyrimidin-4-yl)-1H-pyrazol-1-yl]azetidin-1-yl}piperidine-1-carboxamide], in that order: at most 10 nM, at most 5 nM and 2.6.
As for `N#CCC1(n2cc(-c3ncnc4[nH]ccc34)cn2)CN(C2CCN(C(=O)Nc3ccccc3F)CC2)C1` [Example 169, 4-{3-(cyanomethyl)-3-[4-(7H-pyrrolo[2,3-d]pyrimidin-4-yl)-1H-pyrazol-1-yl]azetidin-1-yl}-N-(2-fluorophenyl)piperidine-1-carboxamide], the half-inhibitory concentration (IC50) on Jak2 (a.a. 828-1132) is 10 to 50 nM; in experiment [1], at most 5 nM. Also, in experiment [2], the “IC50 Ratio JAK2/JAK1” value is 5.5.
